Several values for one entry are separate records, joined by “and”; a condition that tells them apart may be missing. Equal values may be shown once. Read-outs that look alike come from different tables or passages of the source. Where a SMILES comes first, the peptide text is derived from it. The star is where a group is joined. Cbz = O=C(OCc1ccccc1)*
Experiments:
[1] = system: adult S. mansoni; assay: WormAssay quantitative motility assay of adult worms in culture; assay type: cell-based, Schistosoma mansoni; details: 1 μM, mixed-sex adults
[2] = system: adult S. mansoni; assay: Microscopic observation of phenotypic changes of adult worms in culture; assay type: cell-based, Schistosoma mansoni; details: 1 μM; for phenotype viewed under the microscope: 72 h; for phenotypic changes: 24 h
[3] = system: caspase activity in adult S. mansoni; assay: Caspase activity; assay type: cell-based, Schistosoma mansoni; details: 1 μM, 24 h, Ac-DEVD-AFC
[4] = system: S. mansoni proteasome β5 subunit; assay: Inhibition of proteasome activity; assay type: biochemical, Schistosoma mansoni; details: 1 μM inhibitor added to lysate, Suc-LLVY-AMC, E-64 present
[5] = system: S. mansoni proteasome β5 subunit; assay: Proteasome inhibition in living worms exposed to inhibitors; assay type: cell-based, Schistosoma mansoni; details: worms exposed to 1 μM for 24 h, washed, extracts assayed with Suc-LLVY-AMC
[6] = system: Schistosoma mansoni infectious larvae (cercariae); details: cercariae pre-treated with 50 μM; cited from earlier work
[7] = target: Sm20S β5 subunit (Schistosoma mansoni, UniProt A0A5K4F079); assay: Sm20S β5 inhibition assay; assay type: biochemical
[8] = target: human immunoproteasome (i20S) β2 subunit (Homo sapiens, UniProt P40306); assay: i20S β2 inhibition assay; assay type: biochemical
[9] = target: human immunoproteasome (i20S) β5 subunit (Homo sapiens, UniProt P28062); assay: i20S β5 inhibition assay; assay type: biochemical; details: for fold less potent towards i20S β5: compared with c20S and Sm20S β5
[10] = system: HepG2 cells
[11] = system: HepG2 cells; details: cited from earlier work
[12] = system: Sm20S β2 subunit; assay: Sm20S β2 inhibition assay; assay type: biochemical
[13] = target: Sm20S β1 subunit (Schistosoma mansoni, UniProt G4V926); assay: Sm20S β1 inhibition assay; assay type: biochemical; details: for IC50: read-out: IC50 Sm20S β1, z-LLE-AMC
[14] = target: Sm20S β2 subunit (Schistosoma mansoni, UniProt G4VSW3); assay: Sm20S β2 inhibition assay; assay type: biochemical; details: for IC50: read-out: IC50 Sm20S β2, z-LRR-AMC
[15] = target: human immunoproteasome (i20S) β1 subunit (Homo sapiens, UniProt P28065); assay: i20S β1 inhibition assay; assay type: biochemical; details: read-out: IC50 i20S β1

Compound: CC(C)C[C@@H](C=O)NC(=O)[C@H](CC(C)C)NC(=O)[C@H](CC(C)C)NC(=O)OCc1ccccc1 [MG132] (Cbz-Leu-Leu-Leu-aldehyde)
- decrease in worm motility ([1]; 24 h): did not alter motility
- phenotype viewed under the microscope [2]: appeared normal in shape, movement and color
- increase in caspase activity compared to the DMSO control [3]: not significantly different from the DMSO control
- reduction of proteolytic activity in worm lysate [4]: 92%
- decrease in endogenous proteasome (β5) activity in living worms [5]: no effect on proteasome activity
- reduction in parasite establishment compared to control-treated mice [6]: 96%

Compound: CCCCCC(=O)N[C@H](C(=O)N[C@@H](CCCC)C(=O)N[C@@H](CC(C)C)C(=O)[C@@]1(C)CO1)C(C)C [analog 1]
- difference in potency between c20S and Sm20S ([7]; all subunits): no difference in potency
- fold less potent towards i20S β2 ([8]; compared with c20S and Sm20S β2): at least 5 fold
- fold less potent towards i20S β5 [9]: at least 5 fold
- fold less cytotoxic to HepG2 cells than carmaphycin B [10]: 11 fold
- EC50 [11]: 134 nM

Compound: CCCCCC(=O)N[C@@H](Cc1ccccc1)C(=O)N[C@@H](CCCC)C(=O)N[C@@H](Cc1ccccc1)C(=O)[C@@]1(C)CO1 [analog 7]
- fold more potent for Sm20S β2 relative to c20S [12]: 3.3 fold
- fold less potent towards i20S β5 [9]: at least 5 fold

Compound: CC(C)C[C@H](NC(=O)[C@H](Cc1ccccc1)NC(=O)c1cnccn1)B(O)O [bortezomib]
- decrease in worm motility ([1]; 6 h): 45%
- phenotypic changes [2]: same deleterious phenotypic changes previously noted for bortezomib
- phenotype viewed under the microscope [2]: relatively motionless, unable to extend or flex their bodies and darkened, and had detached from the surface of the well
- increase in caspase activity compared to the DMSO control [3]: 7 fold
- reduction of proteolytic activity in worm lysate [4]: 99%
- IC50 [13]: 15 nM
- IC50 [14]: 272 nM
- IC50 [7]: 9 nM
- potency for Sm20S β1 compared with β5 [7]: equal potency

Compound: CC(C)C[C@H](NC(=O)[C@H](CCc1ccccc1)NC(=O)CN1CCOCC1)C(=O)N[C@@H](Cc1ccccc1)C(=O)N[C@@H](CC(C)C)C(=O)[C@@]1(C)CO1 [carfilzomib]
- decrease in worm motility ([1]; 6 h): 47%
- phenotype viewed under the microscope [2]: phenotypic changes were similar to those observed for bortezomib
- increase in caspase activity compared to the DMSO control [3]: 4.5 fold
- reduction of proteolytic activity in worm lysate [4]: 100%
- decrease in endogenous proteasome (β5) activity in living worms [5]: 84% and > 75%
- fold less potent against Sm20S β1 compared to bortezomib [13]: more than 33 fold
- IC50 [13]: > 500 nM
- fold more potent against Sm20S β2 compared to bortezomib [14]: 5.6 fold
- IC50 [14]: 48 nM
- fold more potent against Sm20S β5 compared to bortezomib [7]: 18 fold
- selectivity for Sm20S β5 subunit over β1 [7]: ~1000 fold
- selectivity for Sm20S β5 subunit over β2 [7]: approximately 100 fold

Compound: CCCCCC(=O)N[C@H](C(=O)N[C@@H](CCS(C)(=O)=O)C(=O)N[C@@H](CC(C)C)C(=O)[C@@]1(C)CO1)C(C)C [carmaphycin B]
- decrease in worm motility ([1]; 24 h): at least 80%
- phenotypic changes [2]: same deleterious phenotypic changes previously noted for bortezomib
- decrease in endogenous proteasome (β5) activity in living worms [5]: at least 80%
- IC50 [13]: > 500 nM
- IC50 [14]: 0.6 nM
- IC50 ([7]; read-out: IC50 Sm20S β5, Suc-LLVY-AMC): 9.8 nM
- IC50 [15]: > 500 nM
- IC50 ([8]; read-out: IC50 i20S β2): 62 nM
- IC50 ([9]; read-out: IC50 i20S β5): < 5 nM
